From paper PMC3285443 (European Journal of Pharmaceutical Sciences, 2010) come the findings set out here.

A short description of data set [1]: in vivo. The settings on record: female, Labrador retriever, dog, iv.
Data set [2] in a line: in vivo. Particulars: female, Labrador retriever, dog, po, 0.3 mg/kg.
Another data set in a line: physchem. The settings on record: 25 °C, pH 7.4, aqueous buffer, thermodynamic from solid.
A further data set has as its target T1, recombinant rat sEH (Rattus norvegicus, UniProt P80299).
T1 sequence (P80299 1-554): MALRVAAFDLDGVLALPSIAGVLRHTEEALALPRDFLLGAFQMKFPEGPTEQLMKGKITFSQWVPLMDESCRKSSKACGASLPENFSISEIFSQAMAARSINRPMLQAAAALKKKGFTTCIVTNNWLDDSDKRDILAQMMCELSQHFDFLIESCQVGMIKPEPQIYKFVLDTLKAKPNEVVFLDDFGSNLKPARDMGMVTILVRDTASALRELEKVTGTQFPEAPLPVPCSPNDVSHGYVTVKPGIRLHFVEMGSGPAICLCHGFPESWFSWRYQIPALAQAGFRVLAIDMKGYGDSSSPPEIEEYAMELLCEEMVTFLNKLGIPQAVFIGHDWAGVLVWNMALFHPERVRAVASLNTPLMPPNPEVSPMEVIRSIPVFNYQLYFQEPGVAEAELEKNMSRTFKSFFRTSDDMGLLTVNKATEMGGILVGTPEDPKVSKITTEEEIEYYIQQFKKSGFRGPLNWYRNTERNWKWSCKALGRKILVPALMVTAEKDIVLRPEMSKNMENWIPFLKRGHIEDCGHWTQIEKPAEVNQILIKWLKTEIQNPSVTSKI
Description: fluorescent assay with CMNPC substrate, recombinant rat sEH. It counts as biochemical.

The target in data set [3] is T2, purified human recombinant sEH (Homo sapiens, UniProt P34913).
T2 sequence (P34913 1-555): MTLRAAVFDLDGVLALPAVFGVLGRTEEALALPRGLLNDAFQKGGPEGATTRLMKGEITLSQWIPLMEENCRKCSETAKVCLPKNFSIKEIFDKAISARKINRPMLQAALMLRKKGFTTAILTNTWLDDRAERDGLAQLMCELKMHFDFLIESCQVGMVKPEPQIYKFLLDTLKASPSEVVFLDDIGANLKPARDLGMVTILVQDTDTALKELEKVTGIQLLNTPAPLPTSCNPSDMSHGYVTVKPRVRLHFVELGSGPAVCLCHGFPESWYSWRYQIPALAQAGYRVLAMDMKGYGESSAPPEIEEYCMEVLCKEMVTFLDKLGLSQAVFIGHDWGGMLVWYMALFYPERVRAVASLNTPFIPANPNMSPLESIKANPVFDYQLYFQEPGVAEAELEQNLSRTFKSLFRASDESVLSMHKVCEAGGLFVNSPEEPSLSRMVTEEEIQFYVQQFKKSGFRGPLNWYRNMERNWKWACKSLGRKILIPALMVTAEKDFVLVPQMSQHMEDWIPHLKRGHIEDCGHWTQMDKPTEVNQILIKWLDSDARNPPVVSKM
The data set is classed as biochemical.

The target of data set [4] is human sEH (human liver cytosol) (Homo sapiens, UniProt P34913). The data set can be described thus: LC/MS assay with 14,15-EET substrate, human liver cytosol. The data set is classed as biochemical.
A short description of data set [5]: experimental LogP determination. Particulars: for logP at 24 h: 1-octanol / 0.1 M sodium phosphate buffer, pH 7.4.
Data set [6] concerns the target T3, recombinant human soluble epoxide hydrolase (Homo sapiens, UniProt P34913).
T3 sequence (P34913 1-555): T2 sequence (P34913 1-555)
Description: fluorescent assay with CMNPC substrate, recombinant human sEH. The data set is classed as biochemical.

A short description of data set [7]: cassette-dosing oral pharmacokinetic screening in dogs. Particulars: dog; for AUC / half-life: female, Labrador retriever, plasma, po, 0.3 mg/kg; for C24/IC50 (ratio of blood concentration over the IC50 with recombinant human sEH after 24 hour): n=1.
For a further data set, the target named is T4, recombinant murine sEH (Mus musculus, UniProt P34914).
T4 sequence (P34914 1-554): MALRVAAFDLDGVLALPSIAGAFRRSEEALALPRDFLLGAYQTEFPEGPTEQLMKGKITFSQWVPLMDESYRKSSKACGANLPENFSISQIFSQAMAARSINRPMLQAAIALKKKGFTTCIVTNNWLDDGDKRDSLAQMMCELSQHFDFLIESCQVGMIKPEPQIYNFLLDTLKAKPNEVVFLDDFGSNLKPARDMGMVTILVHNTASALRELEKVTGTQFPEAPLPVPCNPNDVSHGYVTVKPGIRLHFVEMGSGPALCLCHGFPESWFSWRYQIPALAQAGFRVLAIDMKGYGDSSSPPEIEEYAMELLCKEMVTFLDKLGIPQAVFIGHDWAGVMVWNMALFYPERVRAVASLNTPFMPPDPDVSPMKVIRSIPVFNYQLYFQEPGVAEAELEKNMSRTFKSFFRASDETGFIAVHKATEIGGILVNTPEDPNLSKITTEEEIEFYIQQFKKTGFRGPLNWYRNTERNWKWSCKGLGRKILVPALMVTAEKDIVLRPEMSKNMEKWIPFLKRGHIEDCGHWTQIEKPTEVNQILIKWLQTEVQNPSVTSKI
The data set can be described thus: fluorescent assay with CMNPC substrate, recombinant mouse sEH. It counts as biochemical.

In the next data set the target is T5, human recombinant sEH (Homo sapiens, UniProt P34913).
T5 sequence (P34913 1-555): T2 sequence (P34913 1-555)
The data set can be described thus: radioactive t-DPPO assay, purified recombinant human sEH. It counts as biochemical.

The nature of data set [8]: water solubility determination. Particulars: 0.1 M sodium phosphate buffer (pH 7.4), 25°C, 24 hours.
Data set [9] can be described thus: compartmental pharmacokinetics after i.v. administration in dogs. The settings on record: female, Labrador retriever, dog, plasma, iv.
Data set [10] in a line: compartmental pharmacokinetics after oral gavage. Particulars: female, Labrador retriever, dog, plasma, 0.3 mg/kg.

Values after ≈ are worked out from the molar mass of the structure shown. Where two headings read alike, the source gives them in different places. Where only a bound is given, the exact number is not on record here.

The clearance is the rate of elimination divided by the concentration. As a reminder, the half-life is the time in which the quantity being followed falls by half. Lower therefore signals fast loss. By Cmax is commonly meant the highest concentration seen after dosing. As usually defined, the Tmax is the time at which the peak concentration occurs. What is called solubility is how much of the substance goes into solution per volume. High values mean much dissolved substance, low ones little dissolved substance. In “in vivo [1]”, `CC(=O)N1CCC(NC(=O)NC23CC4CC(CC(C4)C2)C3)CC1` [compound 14, N-(1-acetylpiperidin-4-yl)-N’-(adamant-1-yl) urea] gave a clearance of 2.4 L/h/kg and a half-life of 0.6 ± 0.1 h. Also, in “in vivo [2]”, the highest level (Cmax) was 0.08 ± 0.03 µM, the Tmax was 1 ± 0.7 h and the half-life is 1.7 ± 0.4 h. The compound also yielded a solubility at 24 h in the data set “physchem” of 0.49 mg/mL (≈ 1530 µM).

By IC50 is commonly meant the concentration that gives 50% inhibition. Broadly, the logP is the decadic logarithm of the partition coefficient of the neutral form, usually between octanol and water. Higher therefore signals higher lipophilicity. One may read the AUC as concentration integrated over time. As to `CS(=O)(=O)N1CCC(NC(=O)Nc2ccc(OC(F)(F)F)cc2)CC1` [compound 27, 1-(1-methylsulfonyl-piperidin-4-yl)-3-(4-trifluoromethoxy-phenyl)-urea], the IC50 on recombinant rat sEH was 0.009 µM; in data set [3] (IC50 on human sEH in buffer, buffer), 0.15 µM; in data set [3] (IC50 on human sEH incubated in sEH depleted canine liver cytosol, sEH depleted canine liver cytosol supplemented with purified human recombinant sEH) it was 0.12 µM; in [4], 0.026 µM; in data set [6] (IC50, CMNPC, Human, purified recombinant enzyme at […]), 0.003 µM; on recombinant murine sEH, 0.005 µM. Besides, the IC50 at human recombinant sEH came to 0.026 µM. The same compound registered a lipophilicity (logP) at 24 h in [5] of 1.9. Also, the AUC in data set [7] is 28300 nM·h. The half-life in data set [7] is greater than 24 h.

For `COC(=O)c1ccc(NC(=O)NC23CC4CC(CC(C4)C2)C3)cc1O` [compound 62, 4-(3-adamantane-1-yl-ureido)-2-hydroxyl-benzoic acid methyl ester], the IC50 was 0.008 µM on recombinant rat sEH, 0.003 µM in [6], 0.01 µM on recombinant murine sEH and 0.006 µM on human recombinant sEH. Moreover, in data set [7] (oral 0.3 mg/kg cassette dosing), the “C24/IC50 (ratio of blood concentration over the IC50 with recombinant human sEH after 24 hour)” value stood at 0.7. Moreover, the AUC in data set [7] is 210 nM·h.

In data set [8], `CC(=O)N1CCC(NC(=O)Nc2ccc(OC(F)(F)F)cc2)CC1` [compound 24] gave a Water solubility of 0.051 mg/mL. For the same compound, in [5] (octanol / 0.1 M sodium phosphate buffer at pH 7.4), the “LogP (pH 7.4)” value was determined as 2.3. Besides, the “T1/2 (terminal half-life)” value in data set [7] (oral 0.3 mg/kg cassette dosing, n=1, non-compartmental) is greater than 24 h.

Take `CC(=O)N1CCC(NC(=O)NC2CCCCCC2)CC1` [compound 31, 1-cycloheptyl-3-(1-acetylpiperidin-4-yl) urea]: the IC50 on recombinant rat sEH is 0.007 µM; in data set [6] (IC50, CMNPC, Human), 0.028 µM; on recombinant murine sEH, 0.012 µM; on human recombinant sEH, 0.3 µM. Besides, the “C24/IC50 (ratio of blood concentration over the IC50 with recombinant human sEH after 24 hour)” value in data set [7] (oral 0.3 mg/kg cassette dosing) is recorded as 1.0. In [7], the AUC was 3670 nM·h. Further, in data set [7], the half-life was 5.2 h.

`O=C(O)CCCCCCCCCCCNC(=O)NC12CC3CC(CC(C3)C1)C2` [compound 1, 12-(3-adamantane-1-yl-ureido)-dodecanoic acid] had a logP at 24 h in [5] of 3.

In data set [9], `CCOCCOCCOCCCCCNC(=O)NC12CC3CC(CC(C3)C1)C2` [compound 3, 1-adamantan-1-yl-3-{5-[2-(2-ethoxyethoxy)ethoxy]pentyl}urea] gave a clearance of 5.8 L/h/kg and a half-life of 9.6 ± 1.8 min. The compound further returned a logP at 24 h in [5] of 2.6. Besides, in data set [7], the AUC was 40 nM·h and the half-life was 1 h. For the same compound, in [10], the exposure (AUC) was 30 nM·h, the Cmax was found to be 0.02 ± 0.01 µM, the Tmax is 0.2 ± 0.1 h and the half-life is 1.7 ± 1 h.

On to `O=C(Nc1ccc(Cl)cc1)Nc1ccc(Cl)c(Cl)c1` [compound 74, triclocarban, reference compound], for which the “C24/IC50 (ratio of blood concentration over the IC50 with recombinant human sEH after 24 hour)” value in data set [7] (oral 0.3 mg/kg cassette dosing) is on record as less than 0.1. For the same compound, in data set [7], the AUC is 30 nM·h and the half-life is 0.5 h.
